We go through one molecule from PubChem BioAssay AID651586 (Broad Institute, 2012).

Structures are written as SMILES. Several values for one entry are separate records, joined by “and”; a condition that tells them apart may be missing. Equal entries are not always repeated.

The subject of the assay is SK-MEL-5 viability, CellTiter-Glo ATP luminescence, 24 h. Description: SK-MEL-5 parental cell viability reduction, dose response, orthogonal assay for MITF inhibitor project, CellTiter-Glo luminescence, dry powder, set 8 (AID 651586). (Cellular ATP, detected with luciferase, serves as a proxy for viable cell number.)

Consider `O=C1C=C(Nc2ccccc2)C(=O)c2ccccc21`, for which the IC50 (as a rule, the concentration needed to halve the response being measured) is 2.56 µM and 6.21 µM.
